Series [1] concerns the target T1, IDH1 (R132H) (Homo sapiens (Human), UniProt O75874, R132H). In words: Enzyme assay, NADPH decrease detected with Diaphorase/Resazurin. The format is biochemical. The settings on record: 40 nM enzyme, 20 μM NADPH, incubated at 23° C. for 16 hours before α-KG; 12 concentrations. The source says:
(§1) Resazurin is a traditional redox dye, and after a redox reaction, it can be reduced from a blue resazurin without fluorescence to a pink fluorescent substance, resorufin, which can be measured and quantified with relative fluorescence unit (RFU) of fluorophotometer (Ex=530-570 nm, Em=590-620 nm). At present, resazurin is widely used for determining the viability of bacteria, cells, etc. and the enzyme activity detection of oxidoreductase. We detected the decrease of cofactor NADPH to determine the inhibitory activity of a compound against IDHm and detected the generation of cofactor NADPH to determine the inhibitory activity of a compound against IDH WT.
(§2) The compound was pre-incubated with IDHm and NADPH, and then the reaction was initiated by adding α-KG and performed for certain time under a linear condition.
(§3) Then, Diaphorase (lipoamide dehydrogenase) and the corresponding substrate Resazurin were added thereto for detection. Lipoamide dehydrogenase terminated the IDH2m reaction by decreasing the available cofactor NADPH, which oxidized NADPH to NADP, and reduced resazurin to high fluorescent resorufin. The amount of the remaining cofactor NADPH after a specific reaction time was quantified via an easily detectable fluorophore.
(§4) The specific operation was as follows: 2.5 μl of the compound diluted in a 3-fold gradient was added to a 384-well plate, followed by adding 5 μL of the reaction buffer (20 mM Tris-HCl, pH 7.5; 150 mM NaCl; 10 mM MgCl2; 0.4 mg/mL BSA (Bovine Serum Albumin) and 2 mM DTT (dithiothreitol)) containing 40 nM IDH1 (R132H/R132C) and 20 μM NADPH. Then, the above test mixture was incubated at 23° C. for 16 hours, and then 2.5 μL of the reaction buffer containing 4 mM α-KG was added to initiate the reaction. After they were incubated for 60 minutes at room temperature, 5 μL of the termination mixture (0.4 U/ml Diaphorase and 20 μM Resazurin) formulated with the reaction buffer was added to convert resazurin to resorufin, so as to measure the amount of the remaining NADPH. After incubating at 23° C. for 10 minutes, fluorescence values were determined through Flexstation 3 at Ex535/Em595. The enzyme activity of each compound was respectively determined at 12 concentrations, and the data were calculated using the software GraFit6.0 (Erithacus Software) to obtain the IC50 value of each compound.

Series [2] concerns the target T1, IDH1 (R132H). In words: Binding mode determination, free compound by LC-MS/MS. The settings on record: incubated with IDH1 (R132H), FIG. 1. The method, then: The compounds were incubated with IDH1 (R132H), and then divided into N parts. The reaction was terminated by adding acetonitrile at different time points, and the organic phase was separated by centrifugation. The resulting samples were stored at −80° C. until analysis, and the concentration of the compounds in free from were analyzed by LC-MS/MS, mobile phase A: water (0.1% of formic acid), B: acetonitrile (0.1% of formic acid), strong needle wash solution: acetonitrile:water=9:1, weak needle wash solution: acetonitrile:water=1:9.

A further series in a line: Pharmacokinetic test. Conditions: male SD rats, oral 5 mg/kg. In kind it is in vivo. The method, then: Male SD rats were from Beijing Vital River Laboratory Animal Technology Co., Ltd., and divided into groups (3 rats per group). The rats were intragastically administered with the test sample suspension (5 mg/kg) via a single peroral administration, respectively. The animals were fasted overnight before this study. The fasting time period was from 10 hours before administration to 4 hours after administration. Blood samples were taken at 0.25, 0.5, 1, 2, 4, 6, 8 and 24 hours after administration. After the rats were anesthetized with isoflurane using an anesthesia machine for small animal, and then 0.3 mL whole blood samples were taken from the fundus venous plexus. The blood samples were placed in heparin anticoagulant tubes, and centrifuged for 5 min at 4° C. and 4000 rpm. The plasma was transferred to centrifuge tubes, and stored at −80° C. until analysis. The samples in plasma were extracted through protein precipitation. The liquid extract was analyzed by LC-MS/MS, mobile phase A: water (0.1% of formic acid), B: acetonitrile (0.1% of formic acid), strong needle wash solution: acetonitrile:water=9:1, weak needle wash solution: acetonitrile:water=1:9.

For another series, the target named is IDH1 (R132C) (Homo sapiens (Human), UniProt O75874, R132C). In words: Enzyme assay, NADPH decrease detected with Diaphorase/Resazurin. In kind it is biochemical. The settings on record: 40 nM enzyme, 20 μM NADPH, incubated at 23° C. for 16 hours before α-KG; 12 concentrations.
Chain of IDH1 (R132C) (O75874 whole entry R132C): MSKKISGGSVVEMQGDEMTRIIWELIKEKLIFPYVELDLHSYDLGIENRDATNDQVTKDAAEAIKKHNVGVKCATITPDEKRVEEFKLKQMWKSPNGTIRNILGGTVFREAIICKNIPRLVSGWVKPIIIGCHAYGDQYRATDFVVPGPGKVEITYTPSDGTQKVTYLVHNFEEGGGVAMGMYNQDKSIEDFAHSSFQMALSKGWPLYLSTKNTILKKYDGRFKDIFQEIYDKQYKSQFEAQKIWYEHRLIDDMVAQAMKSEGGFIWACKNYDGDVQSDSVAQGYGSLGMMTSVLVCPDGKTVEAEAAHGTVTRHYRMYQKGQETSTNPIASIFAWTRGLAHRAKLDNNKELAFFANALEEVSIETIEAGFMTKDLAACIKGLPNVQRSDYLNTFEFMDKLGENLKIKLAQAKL
Source text: as §1, §2, §3, §4

[3] abbreviates: rat, 0.5% MC, 0.2% Tween80, plasma.

This is an account of results in patent US11203586B2, “Iridinesulfonamide compound and use method thereof” (Chia Tai Tianqing Pharmaceutical Group Co., Ltd., priority 2016, dated 2021).

Where only a bound is given, the exact number is not on record here.

T1 sequence (O75874 whole entry R132H): as the sequence (O75874 whole entry R132C) above, with C132H counted along it

Consider `O=C(NC1CC(F)(F)C1)C(c1ccccc1Cl)N(C(=O)CNS(=O)(=O)N1CC1)c1cccc(F)c1` (stereo not drawn) [Example 10, 2-(aziridine-1-sulfonylamino)-N-(1-(2-chlorophenyl)-2-((3,3-difluorocyclobutyl)amino)-2-oxoethyl)-N-(3-fluorophenyl)acetamide], for which the IC50 on IDH1 (R132H) [1] was under 20 nM. Besides, the “binding of the compound to the enzyme over time” value on IDH1 (R132H) [2] is “increased over time”. In addition, the “drug concentration in vivo over time” value in the series “Pharmacokinetic test” (PK curve FIG. 2) is “decreased drug concentration in vivo over time”. Moreover, in “Pharmacokinetic test” (setting [3]), the Cmax came to 508 ng/mL, the Tmax was determined as 15 min and the half-life is 90 min. Also, the AUC(0-inf) in the series “Pharmacokinetic test” (rat, 0.5% MC, 0.2% Tween80, plasma, read-out: AUCINF—obs) was 794 ng·h/mL.

For `O=C(NC1CC(F)(F)C1)[C@H](c1ccccc1Cl)N(C(=O)CNS(=O)(=O)N1CC1)c1cccc(F)c1` [Example 25, (S)-2-(aziridine-1-sulfonylamino)-N-(1-(2-chlorophenyl)-2-((3,3-difluorocyclobutyl)amino)-2-oxoethyl)-N-(3-fluorophenyl)acetamide], the IC50 at IDH1 (R132C) and at IDH1 (R132H) [1] was under 20 nM throughout.
